We go through one compound from US20140000883A1, “PETROLEUM RECOVERY PROCESS AND SYSTEM” (Shell Oil Company, priority 2012, published 2014).

The data set can be described thus: Incremental oil recovery from formation core after water-flooding. The conditions noted are these: after waterflooding with brine. On the procedure: Incremental recovery of oil from a formation core using an oil recovery formulation consisting of dimethyl sulfide following oil recovery from the core by water-flooding was measured to evaluate the effectiveness of DMS as a tertiary oil recovery agent.
Two 5.02 cm long Berea sandstone cores with a core diameter of 3.78 cm and a permeability between 925 and 1325 mD were saturated with a brine having a composition as set forth in Table 7.
After saturation of the cores with brine, the brine was displaced by a Middle Eastern Asphaltic crude oil having the characteristics as set forth above in Table 3 to saturate the cores with oil.
Oil was recovered from each oil saturated core by the addition of brine to the core under pressure and by subsequent addition of DMS to the core under pressure. Each core was treated as follows to determine the amount of oil recovered from the core by addition of brine followed by addition of DMS. Oil was initially displaced from the core by addition of brine to the core under pressure. A confining pressure of 1 MPa was applied to the core during addition of the brine, and the flow rate of brine to the core was set at 0.05 ml/min. The core was maintained at a temperature of 50° C. during displacement of oil from the core with brine. […]

The structures appear in SMILES notation.

Take `CSC` [Dimethyl Sulfide, dimethyl sulfide]: the “oil recovered of the oil remaining in the core after the waterflood” value is reported as “approximately 60%”.
